In patent US20230295157A1, “3-(1H-IMIDAZOL-2-YL)-2,3,8,8A-TETRAHYDROINDOLIZIN-5(1H)-ONE DERIVATIVES USEFUL AS FACTOR XIA INHIBITORS” (JANSSEN PHARMACEUTICA NV, priority 2020, published 2023):
Where two headings read alike, the source gives them in different places.

How the values were obtained:
Factor XIa = Factor XIa (Homo sapiens (Human), UniProt P03951); test: Factor XIa inhibition assay (FLINT) utilizing a fluorophore-quencher pair peptide substrate; format: biochemical; conditions: 30 min preincubation, kinetic reads over 30 min, read-out: FXIa Kin Inh IC50
Method in brief: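 FXIa ([…]) preincubated 30 min with compound (11-point 3-fold dilution, top 100 nM, 2% DMSO), then 15 μM quenched FXI Arg146-based peptide added; Tris pH 7.5, CaCl2, BSA, CHAPS. Fluorescence 485/520 nm read kinetically every 5 min over 30 min at RT; IC50 by 4-parameter fit.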

human plasma kallikrein = human plasma kallikrein (Homo sapiens (Human), UniProt P03952); test: Kallikrein inhibition assay (FLINT) utilizing a quenched AMC peptide substrate; format: biochemical; conditions: 30 min preincubation, read-out: Kallikrein Kin Inh IC50
Method in brief: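 Enzyme (2 nM final) pre-incubated 30 min at room temperature with compound (11-point, 3-fold, top 1 μM, 2% DMSO), then 50 μM Z-Gly-Pro-Arg-AMC added in Tris pH 7.5 buffer. Kinetic fluorescence 340/440 nm every 5 min over 30 min; IC50 from 4-parameter logistic fit.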

[1] = 5Fam-KLTRAETV-K5Tamra substrate 15 μM
[2] = kinetic reads over 30 min, Z-Gly-Pro-Arg-AMC substrate 50 μM
[3] = 5Fam-[…]-K5Tamra substrate 15 μM

Factor XIa, sequence (P03951 388-625): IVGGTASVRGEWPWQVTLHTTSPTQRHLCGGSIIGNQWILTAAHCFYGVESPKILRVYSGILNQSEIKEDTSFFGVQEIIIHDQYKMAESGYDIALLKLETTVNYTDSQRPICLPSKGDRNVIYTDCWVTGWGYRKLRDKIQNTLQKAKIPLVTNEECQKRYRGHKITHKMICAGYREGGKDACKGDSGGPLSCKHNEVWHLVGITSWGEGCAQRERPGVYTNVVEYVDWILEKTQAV
Factor XIa, sequence (P03951 19-387 partner): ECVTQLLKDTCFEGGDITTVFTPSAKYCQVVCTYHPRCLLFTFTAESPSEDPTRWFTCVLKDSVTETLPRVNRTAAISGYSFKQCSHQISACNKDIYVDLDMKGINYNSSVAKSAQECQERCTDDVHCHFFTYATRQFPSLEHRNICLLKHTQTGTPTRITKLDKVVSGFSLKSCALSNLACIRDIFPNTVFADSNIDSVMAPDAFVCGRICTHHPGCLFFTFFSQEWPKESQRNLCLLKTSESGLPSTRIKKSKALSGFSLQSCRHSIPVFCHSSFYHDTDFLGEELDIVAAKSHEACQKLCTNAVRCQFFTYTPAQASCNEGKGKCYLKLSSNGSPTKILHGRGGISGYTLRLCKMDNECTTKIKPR
human plasma kallikrein, sequence (P03952 391-638): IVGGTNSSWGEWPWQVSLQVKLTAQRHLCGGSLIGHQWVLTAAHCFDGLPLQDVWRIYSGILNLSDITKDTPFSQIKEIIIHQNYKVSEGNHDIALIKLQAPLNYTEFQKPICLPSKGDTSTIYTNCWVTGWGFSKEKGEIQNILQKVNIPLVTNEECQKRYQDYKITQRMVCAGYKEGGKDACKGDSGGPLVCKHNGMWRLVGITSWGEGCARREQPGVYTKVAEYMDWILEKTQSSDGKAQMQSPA
human plasma kallikrein, sequence (P03952 20-390 partner): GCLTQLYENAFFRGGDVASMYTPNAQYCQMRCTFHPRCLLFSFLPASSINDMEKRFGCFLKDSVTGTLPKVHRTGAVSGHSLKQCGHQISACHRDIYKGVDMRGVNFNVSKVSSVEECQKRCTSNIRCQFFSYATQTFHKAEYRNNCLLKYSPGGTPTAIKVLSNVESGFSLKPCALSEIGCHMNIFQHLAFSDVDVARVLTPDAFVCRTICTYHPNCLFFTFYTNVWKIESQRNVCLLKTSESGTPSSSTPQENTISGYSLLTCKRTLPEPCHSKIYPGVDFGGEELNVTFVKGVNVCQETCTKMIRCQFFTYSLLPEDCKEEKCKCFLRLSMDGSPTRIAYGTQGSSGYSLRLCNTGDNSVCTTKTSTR

IC50 (Factor XIa; [1]) [nM] | IC50 (human plasma kallikrein; [2]) [µM] | IC50 (Factor XIa; [3]) [nM] | IC50 (human plasma kallikrein; μM, kinetic reads) [µM] | SMILES
8 | 0.123 |  |  | NC(=O)Cc1nccc(-c2cnc([C@@H]3CC[C@@H]4CC(c5c(-n6cc(C(F)(F)F)nn6)ccc(Cl)c5F)=CC(=O)N43)[nH]2)c1F (single isomer, unassigned) [Example 165, 2-(4-(24(3*S,8a*R)-7-(3-chloro-2-fluoro-6-(4-(trifluoromethyl)-1H-1,2,3-triazol-1-yl)phenyl)-5-oxo-1,2,3,5,8,8a-hexahydroindolizin-3-yl)-1H-imidazol-5-yl)-3-fluoropyridin-2-yl)acetamide]
2.3 | 0.0032 |  |  | COC(=O)Nc1cc(-c2cnc([C@@H]3CC[C@@H]4CC(c5c(-n6cnnn6)ccc(Cl)c5F)=CC(=O)N43)[nH]2)ccn1 [Example 99, Methyl (4-(2-((3S,8aR)-7-(3-chloro-2-fluoro-6-(1H-tetrazol-1-yl)phenyl)-5-oxo-1,2,3,5,8,8a-hexahydroindolizin-3-yl)-1H-imidazol-5-yl)pyridin-2-yl)carbamate]
 | 0.0017 | 0.7 |  | CC(C)C(=O)Nc1ccccc1-c1cnc([C@@H]2CC[C@@H]3CC(c4c(-n5cnnn5)ccc(Cl)c4F)=CC(=O)N32)[nH]1 (relative stereo) [Example 305, N-(2-(2-((3S,8aR*)-7-(3-Chloro-2-fluoro-6-(1H-tetrazol-1-yl)phenyl)-5-oxo-1,2,3,5,8,8a-hexahydroindolizin-3-yl)-1H-imidazol-4-yl)phenyl)isobutyramide]
0.7 | 0.0018 |  |  | O=C1CCc2cc(-c3[nH]c([C@@H]4CC[C@@H]5CC(c6cc(Cl)ccc6-n6cc(C(F)(F)F)nn6)=CC(=O)N54)nc3F)ccc2N1 [Example 81, 6-[2-[(3S,8aR)-7-[5-chloro-2-[4-(trifluoromethyl)triazol-1-yl]phenyl]-5-oxo-2,3,8,8a-tetrahydro-1H-indolizin-3-yl]-4-fluoro-1H-imidazol-5-yl]-3,4-dihydro-1H-quinolin-2-one]
5.4 | 0.0026 |  |  | O=C1C=C(c2cc(Cl)ccc2-n2cnnn2)C[C@H]2CC[C@@H](c3ncc(-c4ccnc(NC56CC(C5)C6)c4F)[nH]3)N12 [Example 96, (3S,8aR)-3-(5-(2-(Bicyclo[1.1.1]pentan-1-ylamino)-3-fluoropyridin-4-yl)-1H-imidazol-2-yl)-7-(5-chloro-2-(1H-tetrazol-1-yl)phenyl)-2,3,8,8a-tetrahydroindolizin-5(1H)-one]
36.1 | 0.0268 |  |  | O=C1C=C(c2c(-n3cnnn3)ccc(Cl)c2F)CC2CC[C@@H](c3nc(-c4ccnc(OC(F)F)c4)c[nH]3)N12 (stereo partly drawn) [Example 10, (S)-7-[3-Chloro-2-fluoro-6-(tetrazol-1-yl)phenyl]-3-[4-[2-(difluoromethoxy)-4-pyridyl]-1H-imidazol-2-yl]-2,3,8,8a-tetrahydro-1H-indolizin-5-one]
 | 0.0023 | 6.5 |  | Nc1ccn(-c2cc(-c3cnc([C@H]4CC[C@@H]5CC(c6c(-n7cnnn7)ccc(Cl)c6F)=CC(=O)N54)[nH]3)ccn2)n1 (single isomer, unassigned) [Example 72, (3R*,8aR)-3-(5-(2-(3-amino-1H-pyrazol-1-yl)pyridin-4-yl)-1H-imidazol-2-yl)-7-(3-chloro-2-fluoro-6-(1H-tetrazol-1-yl)phenyl)-2,3,8,8a-tetrahydroindolizin-5(1H)-one]
> 100 |  |  | 1.05 | Cn1cc(-c2ccccc2NC(=O)C2CC2)nc1[C@@H]1CC[C@@H]2CC(c3c(-n4cnnn4)ccc(Cl)c3F)=CC(=O)N21 (single isomer, unassigned) [Example 298, N-(2-(2-((3S,8aR*)-7-(3-Chloro-2-fluoro-6-(1H-tetrazol-1-yl)phenyl)-5-oxo-1,2,3,5,8,8a-hexahydroindolizin-3-yl)-1-methyl-1H-imidazol-4-yl)phenyl)cyclopropanecarboxamide]
0.5 | 0.0046 |  |  | Nc1nccc(-c2cnc([C@@H]3CC[C@@H]4CC(c5c(-n6cnnn6)ccc(Cl)c5F)=CC(=O)N43)[nH]2)c1F [Example 126, (3S,8aR)-3-[5-(2-amino-3-fluoro-4-pyridyl)-1H-imidazol-2-yl]-7-[3-chloro-2-fluoro-6-(tetrazol-1-yl)phenyl]-2,3,8,8a-tetrahydro-1H-indolizin-5-one]
10.6 | 0.0095 |  |  | NC(=O)c1cc(-c2cnc([C@@H]3CC[C@@H]4CC(c5c(-n6cnnn6)ccc(Cl)c5F)=CC(=O)N43)[nH]2)ccn1 (single isomer, unassigned) [Example 206]
1.7 | 0.0066 |  |  | O=C1C=C(c2c(-n3cnnn3)ccc(Cl)c2F)C[C@H]2CC[C@@H](c3ncc(-c4ccc5cc[nH]c5c4F)[nH]3)N12 [Example 384, (3S,8aR)-7-(3-chloro-2-fluoro-6-(1H-tetrazol-1-yl)phenyl)-3-(5-(7-fluoro-1H-indol-6-yl)-1H-imidazol-2-yl)-2,3,8,8a-tetrahydroindolizin-5(1H)-one]
0.8 | 0.0042 |  |  | Nc1nccc(-c2cnc([C@@H]3CC[C@@H]4CC(c5c(-n6cnnn6)ccc(Cl)c5F)=CC(=O)N43)[nH]2)c1Cl [Example 380, (3S,8aR)-3-(5-(2-amino-3-chloropyridin-4-yl)-1H-imidazol-2-yl)-7-(3-chloro-2-fluoro-6-(1H-tetrazol-1-yl)phenyl)-2,3,8,8a-tetrahydroindolizin-5(1H)-one]
46.5 | 0.0379 |  |  | NC(=O)c1ncc(-c2c[nH]c([C@@H]3CC[C@H]4CC(c5c(-n6cc(C(F)(F)F)nn6)ccc(Cl)c5F)=CC(=O)N43)n2)s1 (single isomer, unassigned) [Example 209]
7.4 | 0.0288 |  |  | C[C@H](C#N)c1nccc(-c2cnc([C@@H]3CCC4CC(c5c(-n6cnnn6)ccc(Cl)c5F)=CC(=O)N43)[nH]2)c1F (relative stereo) [Example 163, (2*S)-2-(4-(2-((3S)-7-(3-chloro-2-fluoro-6-(1H-tetrazol-1-yl)phenyl)-5-oxo-1,2,3,5,8,8a-hexahydroindolizin-3-yl)-1H-imidazol-5-yl)-3-fluoropyridin-2-yl)propanenitrile]
82.1 | 0.465 |  |  | CC(=O)Nc1cc(-c2cnc([C@@H]3CCC4CC(c5c(-n6cnnn6)ccc(Cl)c5F)=CC(=O)N43)[nH]2)c(Cl)cn1 (stereo partly drawn) [Example 18, N-[5-Chloro-4 [2-[(3S)-7-[3-Chloro-2-fluoro-6-(tetrazol-1-yl)phenyl]-5-oxo-2,3,8,8a-tetrahydro-1H-indolizin-3-yl]-1H-imidazol-5-yl]-2-pyridyl]acetamide]
15.9 | 0.138 |  |  | O=C1C=C(c2c(-n3cc(C(F)(F)F)nn3)ccc(Cl)c2F)C[C@H]2CC[C@@H](c3ncc(-c4ccc(CO)nc4Cl)[nH]3)N12 [Example 223, (3S,8aR)-7-(3-Chloro-2-fluoro-6-(4-(trifluoromethyl)-1H-1,2,3-triazol-1-yl)phenyl)-3-(5-(2-chloro-6-(hydroxymethyl)pyridin-3-yl)-1H-imidazol-2-yl)-2,3,8,8a-tetrahydroindolizin-5(1H)-one]
 | 0.0051 | 1.9 |  | N#CC1CN(c2nccc(-c3cnc([C@@H]4CC[C@@H]5CC(c6c(-n7cnnn7)ccc(Cl)c6F)=CC(=O)N54)[nH]3)c2F)C1 (single isomer, unassigned) [Example 100, 1-(4-(2-((3S*,8aR)-7-(3-chloro-2-fluoro-6-(1H-tetrazol-1-yl)phenyl)-5-oxo-1,2,3,5,8,8a-hexahydroindolizin-3-yl)-1H-imidazol-5-yl)-3-fluoropyridin-2-yl)azetidine-3-carbonitrile]
0.4 | 0.0086 |  |  | Nc1ccc(-c2cnc([C@@H]3CC[C@@H]4CC(c5cc(Cl)ccc5-n5cnnn5)=CC(=O)N43)[nH]2)c(F)n1 [Example 123, (3S,8aR)-3-[5-(6-amino-2-fluoro-3-pyridyl)-1H-imidazol-2-yl]-7-[5-chloro-2-(tetrazol-1-yl)phenyl]-2,3,8,8a-tetrahydro-1H-indolizin-5-one]
2.3 | 0.0077 |  |  | NC(=O)c1ccc(-c2c[nH]c([C@@H]3CC[C@H]4CC(c5c(-n6cc(C(F)(F)F)nn6)ccc(Cl)c5F)=CC(=O)N43)n2)s1 (single isomer, unassigned) [Example 221]
 |  | 202 | 1.3 | C[C@H]1C[C@@H](c2ncc(-c3ccc(N)nc3F)[nH]2)N2C(=O)C=C(c3c(-n4cnnn4)ccc(Cl)c3F)C[C@H]12 (relative stereo) [Example 344, (1*S,3S,8a*R)-3-(5-(6-Amino-2-fluoropyridin-3-yl)-1H-imidazol-2-yl)-7-(3-chloro-2-fluoro-6-(1H-tetrazol-1-yl)phenyl)-1-methyl-2,3,8,8a-tetrahydroindolizin-5(1H)-one]
3.7 | 0.0177 |  |  | O=C1C=C(c2c(-n3cnnn3)ccc(Cl)c2F)C[C@H]2CC[C@@H](c3ncc(-c4ccc5cc[nH]c5c4)[nH]3)N12 [Example 8]
7.5 | 0.0122 |  |  | CC(C)(CO)Nc1nccc(-c2cnc([C@@H]3CC[C@@H]4CC(c5cc(Cl)ccc5-n5cnnn5)=CC(=O)N43)[nH]2)c1F [Example 79, (3S,8aR)-7-[5-chloro-2-(tetrazol-1-yl)phenyl]-3-[5-[3-fluoro-2-[(2-hydroxy-1,1-dimethyl-ethyl)amino]-4-pyridyl]-1H-imidazol-2-yl]-2,3,8,8a-tetrahydro-1H-indolizin-5-one]
